pIC50: −log10 of the molar value.

The subject of the first test is Aβ40 in conditioned medium of cells stably expressing Amyloid Precursor Protein (APP). Nature of the test: BACE cell-based assay: Aβ40 in conditioned medium by sandwich ELISA. The conditions noted are these: cell based assay data of Table 4; unit inferred; read-out: Cell Assay. The procedure:
The cell-based assay measures inhibition or reduction of Aβ40 in conditioned medium of test compound treated cells expressing amyloid precursor protein.
Cells stably expressing Amyloid Precursor Protein (APP) were plated at a density of 40K cells/well in 96 well plates (Costar). The cells were cultivated for 24 hours at 37° C. and 5% CO2 in DMEM supplemented with 10% FBS. The test compounds were then added to cells in 10-point dose response concentrations with the starting concentration being either 100 μM or 10 μM. The compounds were diluted from stock solutions in DMSO and the final DMSO concentration of the test compounds on cells was 0.1%. After 24 h of incubation with the test compounds the supernatant conditioned media was collected and the Aβ40 levels were determined using a sandwich ELISA. The ICso of the compound was calculated from the percent of control or percent inhibition of Aβ40 as a function of the concentration of the test compound.
The sandwich ELISA to detect Aβ40 was performed in 96 well microtiter plates, which were pre-treated with goat anti-rabbit IgG (Pierce). The capture and detecting antibody pair that were used to detect Aβ40 from cell supernatants were affinity purified pAb40 (Biosource) and biotinylated 6E10 (Signet Labs Inc.), respectively. The optimal concentration for the pAb40 antibody was 3 μg/ml in Superblock/TBS (Pierce) that was supplemented with 0.05% Tween 20 (Sigma).
Cellular supernatants were incubated with the capture antibody for 3 h at 4° C., followed by 3 wash steps in TBS-tween (0.05%). The detecting antibody incubation was for 2 h at 4° C., again followed by the wash steps as described previously. The final readout of the ELISA is Time-Resolved Fluorescence (counts per minute) using Delfia reagents Streptavidin-Europium and Enhancement solutions (Perkin Elmer) and the Victor 2 multilabel counter (Perkin Elmer).
`CC(=O)N[C@@H](Cc1ccc(F)cc1)[C@H](O)CN[C@H]1C[C@]2(C[C@H](C)C2)Oc2ncc(CC(C)C)cc21` [compound 615, N-((1S,2R)-1-((4-fluorophenyl)methyl)-2-hydroxy-3-(((1s,3R,4′S)-3-methyl-6′-(2-methylpropyl)-3′,4′-dihydrospiro[cyclobutane-1,2′-pyrano[2,3-b]pyridin]-4′-yl)amino)propyl)acetamide]: the pIC50 was 7.61.
Still for that read-out and setting: the figure for `CC(=O)N[C@@H](Cc1ccc(F)cc1)[C@H](O)CN[C@H]1C[C@]2(C[C@@H](C)C2)Oc2ncc(CC(C)C)cc21` [compound 616, N-((1S,2R)-1-((4-fluorophenyl)methyl)-2-hydroxy-3-(((1r,3S,4′S)-3-methyl-6′-(2-methylpropyl)-3′,4′-dihydrospiro[cyclobutane-1,2′-pyrano[2,3-b]pyridin]-4′-yl)amino)propyl)acetamide] is 7.20; for `CC(=O)N[C@@H](Cc1cccc(F)c1)[C@H](O)CN[C@H]1C[C@]2(C[C@H](C)C2)Oc2ncc(CC(C)C)cc21` [compound 617, N-((1S,2R)-1-((3-fluorophenyl)methyl)-2-hydroxy-3-(((1s,3R,4′S)-3-methyl-6′-(2-methylpropyl)-3′,4′-dihydrospiro[cyclobutane-1,2′-pyrano[2,3-b]pyridin]-4′-yl)amino)propyl)acetamide] it is 8.53; for `CC(=O)N[C@@H](Cc1ccc(Cl)cc1)[C@H](O)CN[C@H]1C[C@]2(C[C@H](C)C2)Oc2ncc(CC(C)C)cc21` [compound 618, N-((1S,2R)-1-((4-chlorophenyl)methyl)-2-hydroxy-3-(((1s,3R,4′S)-3-methyl-6′-(2-methylpropyl)-3′,4′-dihydrospiro[cyclobutane-1,2′-pyrano[2,3-b]pyridin]-4′-yl)amino)propyl)acetamide] it is 7.14.
On the same count and under the same terms, the figure for `CC(=O)N[C@@H](Cc1ccc(F)cc1)[C@H](O)CN[C@H]1C[C@]2(CC[C@@H]2C)Oc2ncc(CC(C)(C)C)cc21` [compound 619] is 7.49.
In the case of `CC(=O)N[C@@H](Cc1ccc(Cl)cc1)[C@H](O)CN[C@H]1C[C@]2(CC[C@@H]2C)Oc2ncc(CC(C)(C)C)cc21` [compound 620], the pIC50 was 7.21.
Still for that read-out and setting: the figure for `CC(=O)N[C@@H](Cc1ccc(F)cc1)[C@H](O)CN[C@H]1C[C@@]2(CC[C@H]2C)Oc2ncc(CC(C)(C)C)cc21` [compound 621] is ≤ 5.00.
The same measure, in the same setting: the figure for `CC(=O)N[C@@H](Cc1ccc(Cl)cc1)[C@H](O)CN[C@H]1C[C@@]2(CC[C@H]2C)Oc2ncc(CC(C)(C)C)cc21` [compound 622] is ≤ 5.00.
Same read-out and setting: then `CC(=O)N[C@@H](Cc1ccc(F)cc1)[C@H](O)CN[C@H]1C[C@]2(CC[C@H]2C)Oc2ncc(CC(C)(C)C)cc21` [compound 623], with 7.42; and `CC(=O)N[C@@H](Cc1ccc(Cl)cc1)[C@H](O)CN[C@H]1C[C@]2(CC[C@H]2C)Oc2ncc(CC(C)(C)C)cc21` [compound 624], with 7.21; and `CC(=O)N[C@@H](Cc1ccc(F)cc1)[C@H](O)CN[C@H]1C[C@@]2(CC[C@@H]2C)Oc2ncc(CC(C)(C)C)cc21` [compound 625], with ≤ 5.00.
`CC(=O)N[C@@H](Cc1ccc(Cl)cc1)[C@H](O)CN[C@H]1C[C@@]2(CC[C@@H]2C)Oc2ncc(CC(C)(C)C)cc21` [compound 626]: the pIC50 is ≤ 5.00.
On to `COC(=O)N[C@@H](Cc1ccc(Cl)cc1)[C@H](O)CN[C@H]1CC2(CCC2)Oc2ncc(CC(C)(C)C)cc21` [compound 627], for which the pIC50 was 6.03.
The same measure, in the same setting: then `COCC(=O)N[C@@H](Cc1ccc(F)cc1)[C@H](O)CN[C@H]1CC2(CCC2)Oc2ncc(CC(C)(C)C)cc21` [compound 628], with 7.98; and `CC(C)(C)Cc1cnc2c(c1)[C@@H](NC[C@@H](O)[C@H](Cc1ccc(F)cc1)NC(=O)C(F)F)CC1(CCC1)O2` [compound 630], with 7.44; and `CC(C)(C)Cc1cnc2c(c1)[C@@H](NC[C@@H](O)[C@H](Cc1ccc(F)cc1)NC(=O)C(F)(F)F)CC1(CCC1)O2` [compound 631], with 7.24.
On the same count and under the same terms, the figure for `CC(C)(C)Cc1cnc2c(c1)[C@@H](NC[C@@H](O)[C@H](Cc1ccc(F)cc1)NC(=O)CC(F)(F)F)CC1(CCC1)O2` [compound 632] is 6.51; for `COCCC(=O)N[C@@H](Cc1ccc(F)cc1)[C@H](O)CN[C@H]1CC2(CCC2)Oc2ncc(CC(C)(C)C)cc21` [compound 633] it is 7.77; for `CC(=O)N[C@@H](Cc1cscn1)[C@H](O)CN[C@H]1CC2(CCC2)Oc2ncc(CC(C)(C)C)cc21` [compound 634, N-((1S,2R)-3-(((4′S)-6′-(2,2-dimethylpropyl)-3′,4′-dihydrospiro[cyclobutane-1,2′-pyrano[2,3-b]pyridin]-4′-yl)amino)-2-hydroxy-1-(1,3-thiazol-4-ylmethyl)propyl)acetamide] it is 7.85.
Same read-out and setting: the figure for `CC(=O)N[C@@H](Cc1ccncc1)[C@H](O)CN[C@H]1CC2(CCC2)Oc2ncc(CC(C)(C)C)cc21` [compound 635, N-((1S,2R)-3-(((4′S)-6′-(2,2-dimethylpropyl)-3′,4′-dihydrospiro[cyclobutane-1,2′-pyrano[2,3-b]pyridin]-4′-yl)amino)-2-hydroxy-1-(4-pyridinylmethyl)propyl)acetamide] is 8.52; for `CCCc1nc(C[C@H](NC(C)=O)[C@H](O)CN[C@H]2CC3(CCC3)Oc3ncc(CC(C)(C)C)cc32)cs1` [compound 636, N-((1S,2R)-3-(((4′S)-6′-(2,2-dimethylpropyl)-3′,4′-dihydrospiro[cyclobutane-1,2′-pyrano[2,3-b]pyridin]-4′-yl)amino)-2-hydroxy-1-((2-propyl-1,3-thiazol-4-yl)methyl)propyl)acetamide] it is 7.83.
`CCCc1scnc1C[C@H](NC(C)=O)[C@H](O)CN[C@H]1CC2(CCC2)Oc2ncc(CC(C)(C)C)cc21` [compound 637, N-((1S,2R)-3-(((4′S)-6′-(2,2-dimethylpropyl)-3′,4′-dihydrospiro[cyclobutane-1,2′-pyrano[2,3-b]pyridin]-4′-yl)amino)-2-hydroxy-1-((5-propyl-1,3-thiazol-4-yl)methyl)propyl)acetamide]: the pIC50 is 6.04.
Turning to `CC(=O)N[C@@H](Cc1cncs1)[C@H](O)CN[C@H]1CC2(CCC2)Oc2ncc(CC(C)(C)C)cc21` [compound 638, N-((1S,2R)-3-(((4′S)-6′-(2,2-dimethylpropyl)-3′,4′-dihydrospiro[cyclobutane-1,2′-pyrano[2,3-b]pyridin]-4′-yl)amino)-2-hydroxy-1-(1,3-thiazol-5-ylmethyl)propyl)acetamide], the pIC50 is 8.64.
On the same count and under the same terms, the figure for `CC(=O)N[C@@H](Cc1csc(C)n1)[C@H](O)CN[C@H]1CC2(CCC2)Oc2ncc(CC(C)(C)C)cc21` [compound 639, N-((1S,2R)-3-(((4′S)-6′-(2,2-dimethylpropyl)-3′,4′-dihydrospiro[cyclobutane-1,2′-pyrano[2,3-b]pyridin]-4′-yl)amino)-2-hydroxy-1-((2-methyl-1,3-thiazol-4-yl)methyl)propyl)acetamide] is 7.62.
On to `CC(=O)N[C@@H](Cc1ccnc(C)c1)[C@H](O)CN[C@H]1CC2(CCC2)Oc2ncc(CC(C)(C)C)cc21` [compound 640, N-((1S,2R)-3-(((4′S)-6′-(2,2-dimethylpropyl)-3′,4′-dihydrospiro[cyclobutane-1,2′-pyrano[2,3-b]pyridin]-4′-yl)amino)-2-hydroxy-1-((2-methyl-4-pyridinyl)methyl)propyl)acetamide], for which the pIC50 was 8.00.
`CC(=O)N[C@@H](Cc1nc(Cl)cs1)[C@H](O)CN[C@H]1CC2(CCC2)Oc2ncc(CC(C)(C)C)cc21` [compound 641, N-((1S,2R)-1-((4-chloro-1,3-thiazol-2-yl)methyl)-3-(((4′S)-6′-(2,2-dimethylpropyl)-3′,4′-dihydrospiro[cyclobutane-1,2′-pyrano[2,3-b]pyridin]-4′-yl)amino)-2-hydroxypropyl)acetamide]: the pIC50 was 8.17.
The same measure, in the same setting: then `CC(=O)N[C@@H](Cc1ccnc(Cl)c1)[C@H](O)CN[C@H]1CC2(CCC2)Oc2ncc(CC(C)(C)C)cc21` [compound 642, N-((1S,2R)-1-((2-chloro-4-pyridinyl)methyl)-3-(((4′S)-6′-(2,2-dimethylpropyl)-3′,4′-dihydrospiro[cyclobutane-1,2′-pyrano[2,3-b]pyridin]-4′-yl)amino)-2-hydroxypropyl)acetamide], with 8.47; and `COc1cc(C[C@H](NC(C)=O)[C@H](O)CN[C@H]2CC3(CCC3)Oc3ncc(CC(C)(C)C)cc32)ccn1` [compound 643, N-((1S,2R)-3-(((4′S)-6′-(2,2-dimethylpropyl)-3′,4′-dihydrospiro[cyclobutane-1,2′-pyrano[2,3-b]pyridin]-4′-yl)amino)-2-hydroxy-1-((2-(methyloxy)-4-pyridinyl)methyl)propyl)acetamide], with 8.17.

The test is the same for the next values; noted with them: read-out: Cell Assay.
In the case of `CC(C)(C)Cc1cnc2c(c1)[C@@H](NC[C@@H](O)[C@H](Cc1ccc(F)cc1)NC(=O)CF)CC1(CCC1)O2` [compound 629], the pIC50 is 7.90.
